{
  "source": "patent US20210032369A1",
  "about": "“METHODS RELATED TO PARKINSON?S DISEASE AND SYNUCLEINOPATHIES” (The Scripps Research Institute, priority 2018, published 2021)",
  "tested_on": "Pα-syn* aggregates in PFF-seeded primary hippocampal neurons",
  "assay": "Autophagy modulation assay: Pα-syn* aggregates in PFF-seeded primary hippocampal neurons",
  "format": "cell-based, mouse",
  "details": "treated from day 3.5 to day 6 post-PFF exposure, rapamycin 300 nM, chloroquine 1 μM, 3-Methyladenine 1 mM, 200 cells counted blinded, versus vehicle",
  "description": "Primary neuronal cultures and PFFs seeding: Primary neuronal cultures were prepared from E16-E18 C57BL/6 mouse brains (Charles River Laboratories) using standard procedures. For immunofluorescence experiments, dissociated hippocampal neurons were plated onto poly-L-lysine coated glass coverslips placed in 24-well plates, at a cell density of 125,000 cells/well. For biochemical assays, dissociated cortical neurons were plated onto poly-L-lysine-coated 6-well plates at a cell density of 1,000,000 cells/well. Neuronal cultures were seeded with PFFs at 5-6 days in vitro (DIV). […] Just before seeding, PFFs were diluted in PBS at 0.1 mg/ml, sonicated during 30 sec (0.5 sec ON, 0.5 sec OFF, power 30%), and diluted in neuronal media. Two μg/ml PFFs (final) per well were added on 24-well plates for immunofluorescence experiments, and 4 μg/ml PFFs (final) per well were added to 6-well plates for biochemical assays. In the case of control conditions, an equivalent volume of PBS was added to the neuronal cultures. Autophagy modulation assays: Dissociated hippocampal neurons were plated onto poly-L-lysine coated glass coverslips placed in 24-well plates, at a cell density of 125,000 cells/well and seeded with PFFs (or equivalent volume of PBS for the control) at 5-6 DIV. […] Thereafter, neuronal cultures were grown for an extra 2.5 days until a total of 6 days after PFF seeding, were fixed and processed for immunofluorescence. In order to assess the effect of autophagy modulation on Pα-syn* generation, a total of 200 cells per treatment were evaluated and the number of Pα-syn* aggregates per cells was counted in a blinded fashion at 100× magnification. Immunofluorescence experiments: Neurons were fixed for 30 min at room temperature with 4% (w/v) paraformaldehyde in PBS containing 4% (w/v) sucrose. Neurons were washed with PBS, permeabilized with 0.2% (v/v) Triton X-100 in PBS for 6 min, washed again in PBS and blocked for 1 hour at room temperature. […]",
  "data": [
    {"smiles": "Cn1cnc(N)c2ncnc1-2", "note": "[3-Methyladenine]", "values": [
      {"measurement": "number of Pα-syn* aggregates per cell", "value": "decrease"},
      {"measurement": "number of Pα-syn* aggregates per cell", "setting": "listed as 3-MA", "value": "fewer"}
    ]},
    {"smiles": "CCN(CC)CCCC(C)Nc1ccnc2cc(Cl)ccc12", "note": "(stereo not drawn) [chloroquine]", "values": [
      {"measurement": "number of Pα-syn* aggregates per cell", "value": "fewer"}
    ]}
  ]
}
